Results as given in patent EP4806891A1 (Kangbaida (Sichuan) Biotechnology Co., Ltd., priority 2023, dated 2025).

Biological target: T1, HEK-Blue-hTLR9 cells (Homo sapiens, UniProt Q9NR96)
T1 construct: expressed in transfected cells; host or cells: HEK-Blue-hTLR9 cells (HEK293-derived reporter line)
T1 sequence (Q9NR96 26-1032): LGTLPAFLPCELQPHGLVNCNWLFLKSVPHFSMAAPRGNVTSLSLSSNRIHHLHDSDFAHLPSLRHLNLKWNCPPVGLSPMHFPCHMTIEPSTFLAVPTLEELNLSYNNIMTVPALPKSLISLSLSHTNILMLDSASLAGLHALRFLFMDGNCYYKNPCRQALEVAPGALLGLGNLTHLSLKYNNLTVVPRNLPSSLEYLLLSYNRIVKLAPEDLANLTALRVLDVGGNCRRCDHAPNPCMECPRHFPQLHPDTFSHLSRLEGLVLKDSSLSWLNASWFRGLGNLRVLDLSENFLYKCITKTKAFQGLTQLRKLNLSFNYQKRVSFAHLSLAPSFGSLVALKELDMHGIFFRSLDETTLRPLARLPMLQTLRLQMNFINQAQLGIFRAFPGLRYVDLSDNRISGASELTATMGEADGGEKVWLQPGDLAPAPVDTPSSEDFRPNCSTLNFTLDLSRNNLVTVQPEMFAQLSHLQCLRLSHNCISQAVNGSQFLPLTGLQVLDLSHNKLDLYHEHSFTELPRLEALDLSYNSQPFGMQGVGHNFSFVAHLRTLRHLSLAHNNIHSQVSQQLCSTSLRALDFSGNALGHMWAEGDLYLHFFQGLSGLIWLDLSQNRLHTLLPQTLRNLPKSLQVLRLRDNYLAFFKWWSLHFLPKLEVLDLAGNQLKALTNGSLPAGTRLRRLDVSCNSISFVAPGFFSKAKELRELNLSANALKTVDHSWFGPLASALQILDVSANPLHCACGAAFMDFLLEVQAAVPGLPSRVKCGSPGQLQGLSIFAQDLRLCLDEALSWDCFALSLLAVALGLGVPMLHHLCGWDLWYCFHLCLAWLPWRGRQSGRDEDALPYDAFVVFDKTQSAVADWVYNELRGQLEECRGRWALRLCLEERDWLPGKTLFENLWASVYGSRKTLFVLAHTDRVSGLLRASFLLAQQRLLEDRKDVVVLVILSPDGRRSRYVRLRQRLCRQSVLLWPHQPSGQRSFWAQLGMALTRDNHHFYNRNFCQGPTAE
Assay: HEK-Blue-hTLR9 cell inhibition assay
Type: cell-based
Conditions: ODN2006 1 µM, 16 h, OD 620 nm, read-out: TLR9 IC50
Procedure: HEK-Blue-hTLR7/8/9 cell inhibition assay
1. HEK-Blue-hTLR7/8 cells (1 × 10^4 cells/well) and HEK-Blue-hTLR9 cells (1.5 × 10^4 cells/well) were seeded in a 384-well cell culture plate, with a volume of 30 µL per well. The plate was incubated at 37°C in a 5% CO2 incubator for 4 h. 2. The compound was prepared with DMSO and diluted in DMEM medium to 10 concentrations (1:3 dilution), with final concentrations of 10000, 3333.3, 1111.1, 370.4, 123.5, 41.2, 13.7, 4.6, 1.5, and 0.5 nM; R848 was prepared with DMSO and diluted in DMEM medium, with final concentrations of 0.8 µM (HEK-Blue-hTLR7) and 3 µM (HEK-Blue-hTLR8); ODN2006 was prepared with endotoxin-free water and diluted in DMEM medium, with a final concentration of 1 µM. 3. Cells treated with DMSO were used as the blank control group, while cells treated solely with Resiquimod (R848) were used as the positive control group for HEK-Blue-hTLR7/8, and cells treated solely with ODN2006 were used as the positive control group for HEK-Blue-hTLR9. Cells treated with the test compound together with R848 or ODN2006 were used as the test group. Two parallel wells were set for each group and were placed at 37°C in a 5% CO2 incubator for incubation. 4. After being incubated for 4 h, the 384-well plate of HEK-Blue-hTLR7/8 was taken out from the incubator, and R848 alone or both R848 and the diluted compound were separately added into each well. The plate was placed at 37°C in a 5% CO2 incubator for incubation for 16 h; the 384-well plate of HEK-Blue-hTLR9 was taken out from the incubator, and ODN2006 alone or both ODN2006 and the diluted compound were added separately to each well. The plate was incubated at 37°C in a 5% CO2 incubator for 16 h. 5. After being incubated for 16 h, the 384-well plate was removed from the incubator and centrifuged at 1000 rpm for 1 minute. The optical density value of each well at 620 nm was measured using a multifunctional microplate reader. 6. The cell inhibition rate was calculated as (1-(OD620 test group-OD620 blank group)/(OD620 positive group-OD620 blank group))×100%, and the half maximal inhibitory concentration (IC50) was calculated through curve fitting. Table 1: Activity of the compounds of the present disclosure in HEK-Blue-hTLR7/8/9 cellular assays

Row | Structure (SMILES) | IC50
1 | CN(C)[C@H]1CC[C@H](c2nnc([C@]34CN(c5ccc(C#N)c6ncccc56)C[C@@]3(C(F)(F)F)C4)o2)CC1 [Compound 21, 5-((1S,5R)-1-(5-((1R,4S)-4-(dimethylamino)cyclohexyl)-1,3,4-oxadiazol-2-yl)-5-(trifluoromethyl)-3-azabicyclo[3.1.0]hexan-3-yl)quinoline-8-carbonitrile] | > 1000 nM
2 | N#Cc1ccc(N2C[C@]3(c4nnc(C5=CCNC5)o4)C[C@]3(C(F)(F)F)C2)c2cccnc12 [Compound 22, 5-((1S,5R)-1-(5-(2,5-dihydro-1H-pyrrol-3-yl)-1,3,4-oxadiazol-2-yl)-5-(trifluoromethyl)-3-azabicyclo[3.1.0]hexan-3-yl)quinoline-8-carbonitrile] | > 10000 nM
3 | CN1CCC(n2cnc([C@]34CN(c5ccc(C#N)c6ncccc56)C[C@@]3(C(F)(F)F)C4)n2)CC1 [Compound 23, 5-((1S,5R)-1-(1-(1-methylpiperidin-4-yl)-1H-1,2,4-triazol-3-yl)-5-(trifluoromethyl)-3-azabicyclo[3.1.0]hexan-3-yl)quinoline-8-carbonitrile] | > 1000 nM
4 | N#Cc1ccc(N2C[C@]3(c4nnc(C#CCN5CCOCC5)o4)C[C@]3(C(F)(F)F)C2)c2cccnc12 [Compound 24, 5-((1S,5R)-1-(5-(3-morpholinoprop-1-yn-1-yl)-1,3,4-oxadiazol-2-yl)-5-(trifluoromethyl)-3-azabicyclo[3.1.0]hexan-3-yl)quinoline-8-carbonitrile] | > 10000 nM
5 | CN(C)CC#Cc1nnc([C@]23CN(c4ccc(C#N)c5ncccc45)C[C@@]2(C(F)(F)F)C3)o1 [Compound 25, 5-((1S,5R)-1-(5-(3-(dimethylamino)prop-1-yn-1-yl)-1,3,4-oxadiazol-2-yl)-5-(trifluoromethyl)-3-azabicyclo[3.1.0]hexan-3-yl)quinoline-8-carbonitrile] | < 1000 nM
6 | CC1(C)CC(Cc2nnc([C@]34CN(c5ccc(C#N)c6ncccc56)C[C@@]3(C(F)(F)F)C4)o2)CC(C)(C)N1 [Compound 26, 5-((1S,5R)-1-(5-((2,2,6,6-tetramethylpiperidin-4-yl)methyl)-1,3,4-oxadiazol-2-yl)-5-(trifluoromethyl)-3-azabicyclo[3.1.0]hexan-3-yl)quinoline-8-carbonitrile] | > 1000 nM
7 | N#Cc1ccc(N2C[C@]3(c4nnc(N5CCOCC5)o4)C[C@]3(C(F)(F)F)C2)c2cccnc12 [Compound 27, 5-((1S,5R)-1-(5-morpholino-1,3,4-oxadiazol-2-yl)-5-(trifluoromethyl)-3-azabicyclo[3.1.0]hexan-3-yl)quinoline-8-carbonitrile] | > 10000 nM
8 | CN1CC(Cc2nnc([C@]34CN(c5ccc(C#N)n6ncc(F)c56)C[C@@]3(C(F)(F)F)C4)o2)C1 [Compound 30, 3-fluoro-4-((1S,5R)-1-(5-((1-methylazetidin-3-yl)methyl)-1,3,4-oxadiazol-2-yl)-5-(trifluoromethyl)-3-azabicyclo[3.1.0]hexan-3-yl)pyrazolo[1,5-a]pyridine-7-carbonitrile] | > 1000 nM
9 | CN1CCC(Oc2nnc([C@]34CN(c5ccc(C#N)n6ncc(F)c56)C[C@@]3(C(F)(F)F)C4)o2)CC1 [Compound 31, 3-fluoro-4-((1S,5R)-1-(5-((1-methylpiperidin-4-yl)oxy)-1,3,4-oxadiazol-2-yl)-5-(trifluoromethyl)-3-azabicyclo[3.1.0]hexan-3-yl)pyrazolo[1,5-a]pyridine-7-carbonitrile] | > 1000 nM
10 | N#Cc1ccc(N2C[C@]3(c4nnc(C5(F)CNC5)o4)C[C@]3(C(F)(F)F)C2)c2cccnc12 [Compound 32, 5-((1S,5R)-1-(5-(3-Fluoroazetidin-3-yl)-1,3,4-oxadiazol-2-yl)-5-(trifluoromethyl)-3-azabicyclo[3.1.0]hexan-3-yl)quinoline-8-carbonitrile] | > 10000 nM
11 | N#Cc1ccc(N2C[C@]3(c4nnc(C5CCNCC5F)o4)C[C@]3(C(F)(F)F)C2)c2cccnc12 (some centres unmarked) [Compound 33] | > 1000 nM
12 | CN1CCC(c2nnc([C@]34CN(c5ccc(C#N)c6ncccc56)C[C@@]3(C(F)(F)F)C4)o2)CC1=O (some centres unmarked) [Compound 34] | > 10000 nM
13 | N#Cc1ccc(N2C[C@]3(c4nnc(CC5CNC5)o4)C[C@]3(C(F)(F)F)C2)c2cccnc12 [Compound 35, 5-((1S,5R)-1-(5-(azetidin-3-ylmethyl)-1,3,4-oxadiazol-2-yl)-5-(trifluoromethyl)-3-azabicyclo[3.1.0]hexan-3-yl)quinoline-8-carbonitrile] | > 1000 nM
14 | CN1CC(Cc2nnc([C@]34CN(c5ccc(C#N)c6ncccc56)C[C@@]3(C(F)(F)F)C4)o2)C1 [Compound 36, 5-((1S,5R)-1-(5-((1-methylazetidin-3-yl)methyl)-1,3,4-oxadiazol-2-yl)-5-(trifluoromethyl)-3-azabicyclo[3.1.0]hexan-3-yl)quinoline-8-carbonitrile] | > 1000 nM
15 | CN1CCC(Cc2nnc([C@]34CN(c5ccc(C#N)c6ncccc56)C[C@@]3(C(F)(F)F)C4)o2)CC1 [Compound 37, 5-((1S,5R)-1-(5-((1-methylpiperidin-4-yl)methyl)-1,3,4-oxadiazol-2-yl)-5-(trifluoromethyl)-3-azabicyclo[3.1.0]hexan-3-yl)quinoline-8-carbonitrile] | > 1000 nM
16 | CN1CCC(Cc2nnc([C@]34CN(c5ccc(C#N)c6ncccc56)C[C@@]3(C(F)(F)F)C4)n2C)CC1 [Compound 38, 5-((1S,5R)-1-(4-methyl-5-((1-methylpiperidin-4-yl)methyl)-4H-1,2,4-triazol-3-yl)-5-(trifluoromethyl)-3-azabicyclo[3.1.0]hexan-3-yl)quinoline-8-carbonitrile] | > 10000 nM
17 | CN1CC(c2nnc([C@]34CN(c5ccc(C#N)c6ncccc56)C[C@@]3(C(F)(F)F)C4)o2)C1 [Compound 39, 5-((1S,5R)-1-(5-(1-methylazetidin-3-yl)-1,3,4-oxadiazol-2-yl)-5-(trifluoromethyl)-3-azabicyclo[3.1.0]hexan-3-yl)quinoline-8-carbonitrile] | > 1000 nM
18 | N#Cc1ccc(N2C[C@]3(c4nnc(CN5CCOCC5)o4)C[C@]3(C(F)(F)F)C2)c2cccnc12 [Compound 40, 5-((1S,5R)-1-(5-(morpholinomethyl)-1,3,4-oxadiazol-2-yl)-5-(trifluoromethyl)-3-azabicyclo[3.1.0]hexan-3-yl)quinoline-8-carbonitrile] | > 10000 nM
19 | N#Cc1ccc(N2C[C@]3(c4nnc(CN5CCCC5)o4)C[C@]3(C(F)(F)F)C2)c2cccnc12 [Compound 41, 5-((1S,5R)-1-(5-(Pyrrolidin-1-ylmethyl)-1,3,4-oxadiazol-2-yl)-5-(trifluoromethyl)-3-azabicyclo[3.1.0]hexan-3-yl)quinoline-8-carbonitrile] | > 10000 nM
20 | CN(C)Cc1nnc([C@]23CN(c4ccc(C#N)c5ncccc45)C[C@@]2(C(F)(F)F)C3)o1 [Compound 42, 5-((1S,5R)-1-(5-((dimethylamino)methyl)-1,3,4-oxadiazol-2-yl)-5-(trifluoromethyl)-3-azabicyclo[3.1.0]hexan-3-yl)quinoline-8-carbonitrile] | > 10000 nM
